Assay results from patent publication US4442093A, “Method for administering 24,25-dihydroxycholecalciferol to persons suffering from hypercalcemia” (Kureha Kagaku Kogyo Kabushiki Kaisha, priority 1981, dated 1984).

Columns and labels:
calcium level in serum = assay: Serum calcium in rats made hypercalcemic with Vitamin D3 (Example 1); assay type: in vivo, male Wistar rats; conditions: for Calcium level in serum: 24R 100 µg/kg oral, calcitonin 4 MRCU/kg s.c.
Experimental: To 16 subgroups of male Wistar rats of body weight of 150±40 g (one subgroup consisting of 5 rats), a solution of Vitamin D3 dissolved in corn oil at 600 micrograms/ml was orally administered once a day for continuous 4 days at a daily dose rate of 0.5 ml/100 g body weight to prepare the rats artifically suffering from hypercalcemia. After one day's fasting from the final administration of Vitamin D3, the calcium level in the serum of each rat of the first subgroup was on the average 13.5±0.4 mg/dl. The remaining 15 subgroups of the rats were divided into 3 groups each consisting of 5 subgroups and subjected to the following tests.
To the rats of the second group, a solution of porcine calcitonin in a physiological saline solution containing 4% by weight of gelatin was subcutaneously injected at a dose rate of 4 MRCU/kg body weight instead of the solution of 24R,25-(OH)2 -D3 and they were treated as those of the first group.
To the rats of the third group, only the same triglyceride ester as in the first group was orally administered, and they are treated in the same manner as in the first group.
The calcium level of the respective sera of the thus collected blood was determined by OCPC method (Orthocresol Phthalein Complexone method) and shown in Table 1.

[1] = tested on: inorganic phosphate in serum; assay: Serum inorganic phosphate in chronic renal failure patients without hemodialysis (Example 20); assay type: in vivo, human
Experimental: Eight patients suffering from chronic renal failure and not being subjected to hemodialysis shown in Table 14 were treated by oral daily administration of 24R,25-(OH)2 -D3 in a form of the soft capsule composition obtained in Example 6 at a daily dose of 2 to 10 micrograms for 8 weeks. The concentration of inorganic phosphate in the serum of each patient before the above-mentioned administration and that after completion of the above-mentioned administration for 8 weeks were determined by the Molybdenum Blue method, the results being shown in Table 14.

magnesium level in serum = assay: Serum magnesium in hypermagnesemic chronic renal failure patients (Example 17); assay type: in vivo, human; conditions: for Magnesium level in serum after administration: 10 days; for Magnesium level in serum before administration: baseline
Experimental: To the three patients of chronic renal failure showing the hypermagnesemic symptoms of nearly the same extent to each other, 24R,25-(OH)2 -D3 was orally administered in a form of soft capsule composition prepared in Example 6 at a daily dose of 2 to 5 micrograms for continuous 10 days. Magnesium level in their serum was determined before and after the administration following the ordinary method.

gastric ulcer = assay: Prevention of gastric ulcer due to pyloric ligation (Example 9); assay type: in vivo, male Wistar rats; conditions: 200 µg/kg i.p. once after pyloric ligation, 15 h
Experimental: Twenty male Wistar rats of average body weight of 250 g were divided equally into two groups, and used in the following test:
After 36 hour fasting, all the rats were subjected to pyloric ligation, and the rats of the first group were administered with 2 ml/kg of Panacete®810 (triglyceride ester of C8 and C10 -fatty acid, made by Nippon Oil & Fats Co., Ltd.) containing 0.2% by weight of ethanol intraperitoneally once just after ligation. The rats of the second group were administered with 24R,25-(OH)2 -D3 dissolved in Panacete®810 containing 0.2% by weight of ethanol intraperitoneally at a dose rate of 200 micrograms/kg body weight once just after ligation. After 15 hours of administration, all the rats were subjected to gastrectomy, and the presence or absence of the gastroparietal ulcer was examined on all the resected stomach.
As a result, the occurrence of gastric ulcer was found on 9 rats of 10 rats of the first group, and on 2 rats of 10 rats of the second group.
In a similar test, 24S,25-(OH)2 -D3 was used instead of 24R,25-(OH)2 -D3 to examine its effect in preventing the occurrence of gastric ulcer due to pyloric ligation. As a result, the occurrence of gastric ulcer was recognized on 3 rats of 10 rats of the group similarly treated to those of the second group.

## C=C1CC[C@H](O)C/C1=C/C=C1\CCC[C@]2(C)[C@@H]([C@H](C)CC[C@@H](O)C(C)(C)O)CC[C@@H]12 [24R,25-(OH)2 -D3]
Calcium level in serum; 100 µg/kg oral
  period for which the reduced calcium level was maintained: 12 h
Calcium level in serum; 2 h after administration
  Calcium level in serum: 12.5 ± 0.4 mg/dL
Calcium level in serum; 5 h after administration
  Calcium level in serum: 11.0 ± 0.5 mg/dL
Calcium level in serum; 8 h after administration
  Calcium level in serum: 10.5 ± 0.5 mg/dL
Calcium level in serum; 12 h after administration
  Calcium level in serum: 10.5 ± 0.4 mg/dL
Calcium level in serum; 24 h after administration
  Calcium level in serum: 10.8 ± 0.3 mg/dL
[1]; average of 8 patients, 2 to 10 µg/day, 8 weeks
  Concentration of inorganic phosphate after administration, average: 4.60 ± 0.66 mg/dL
[1]; average of 8 patients, baseline
  Concentration of inorganic phosphate before administration, average: 6.24 ± 0.53 mg/dL
[1]; patient 1 (person six), 10 µg/day, 8 weeks
  Concentration of inorganic phosphate after administration: 5.5 mg/dL
[1]; patient 1 (person six), baseline
  Concentration of inorganic phosphate before administration: 7.2 mg/dL
[1]; patient 2 (person sixteen), 6 µg/day, 8 weeks
  Concentration of inorganic phosphate after administration: 4.7 mg/dL
[1]; patient 2 (person sixteen), baseline
  Concentration of inorganic phosphate before administration: 6.3 mg/dL
[1]; patient 3 (person four), 4 µg/day, 8 weeks
  Concentration of inorganic phosphate after administration: 4.7 mg/dL
[1]; patient 3 (person four), baseline
  Concentration of inorganic phosphate before administration: 5.9 mg/dL
[1]; patient 4 (person twelve), 8 µg/day, 8 weeks
  Concentration of inorganic phosphate after administration: 4.9 mg/dL
[1]; patient 4 (person twelve), baseline
  Concentration of inorganic phosphate before administration: 6.5 mg/dL
[1]; patient 5 (person twenty), 6 µg/day, 8 weeks
  Concentration of inorganic phosphate after administration: 5.3 mg/dL
[1]; patient 5 (person twenty), baseline
  Concentration of inorganic phosphate before administration: 6.6 mg/dL
[1]; patient 6 (person three), 4 µg/day, 8 weeks
  Concentration of inorganic phosphate after administration: 3.8 mg/dL
[1]; patient 6 (person three), baseline
  Concentration of inorganic phosphate before administration: 5.8 mg/dL
[1]; patient 7 (person one), 2 µg/day, 8 weeks
  Concentration of inorganic phosphate after administration: 3.7 mg/dL
[1]; patient 7 (person one), baseline
  Concentration of inorganic phosphate before administration: 5.5 mg/dL
[1]; patient 8 (person ten), 6 µg/day, 8 weeks
  Concentration of inorganic phosphate after administration: 4.2 mg/dL
[1]; patient 8 (person ten), baseline
  Concentration of inorganic phosphate before administration: 6.1 mg/dL
[1]; patient of chronic renal failure, normal level 2.5 to 5.5 mg/dl
  inorganic phosphate level in serum: significantly reduced to the normal level
Magnesium level in serum; patient A, 5 µg/day
  Magnesium level in serum after administration: 2.0 mg/dL
Magnesium level in serum; patient A
  Magnesium level in serum before administration: 4.2 mg/dL
Magnesium level in serum; patient B, 2 µg/day
  Magnesium level in serum after administration: 2.1 mg/dL
Magnesium level in serum; patient B
  Magnesium level in serum before administration: 4.0 mg/dL
Magnesium level in serum; patient C, 5 µg/day
  Magnesium level in serum after administration: 1.9 mg/dL
Magnesium level in serum; patient C
  Magnesium level in serum before administration: 4.3 mg/dL
Gastric ulcer
  occurrence of gastric ulcer: 2 rats of 10 rats
